The text below walks through data of US4361703A, “Para-amino(or nitro)phenyl N-acetylaminothioalkanoates” (priority 1977, dated 1982).

Data set [1] in a line: in vivo. The conditions noted are these: mouse, po.
Procedure: (A)--Investigation of Serum Concentrations in Mice
36 Charles River COBS mice (18 males and 18 females) weighing 30 g each were deprived of food for 16 hours before the trial but were given their usual drinking water. Three groups, each containing 6 males and 6 females, received a dosage of 1 ml/100 g body weight per mouse, orally by stomach tube, of a suspension in 1% gum tragacanth of respectively:
Group X: 500 mg/kg of N-acetyl-para-aminophenol
A blood sample was taken by throat-slitting from one male and one female from each Group at each study time, i.e. 1/2, 1, 2, 4 and 24 hours after the oral administration.
At times 1/2, 1, 2 and 4 hours, each serum sample was divided into three 0.1 ml trial samples for the following three determinations:
This determination was carried out by direct extraction, with no prior hydrolysis, according to an adaptation of the above-mentioned method.
The nature of data set [2]: Hydrolysis stability in tris buffer. Format: physicochemical. How it is done:
PREPARATION OF TRIS BUFFER
0.05 M tris buffer was made by dissolving 6.05 grams of tris-(hydroxymethyl)-methylamine in 1000 ml. of water, and adjusting the pH to 7.2 by the addition of 0.1 M HCl.
(§1) Standard solutions of 1×10^-4 M Compound A in analytical grade methanol (0.01 ml) were prepared, and tested in the simulated gastric and intestinal fluids, in tris buffer alone, in tris buffer with added hog liver esterase and also in serum. The solutions under test were incorporated in 1 ml. of each of the test fluids. A temperature of 30° C. was used for the assays involving the hog liver esterase, whereas a temperature of 37° C. was used for the assays involving the simulated gastric and intestinal fluids and the serum. After this, the mixture was allowed to stand and the supernatant liquid was spotted onto silica t.l.c. plates and developed in 90:10 chloroform/methanol. The mixture was then extracted with 5 mls of chloroform and the chloroform-containing mixture was filtered through phase-separating papers, which allow only the chloroform solution to pass through. The chloroform solution was also spotted onto silica t.l.c. plates and developed in 90:10 chloroform/methanol.

The nature of data set [3]: Hydrolysis stability in human serum. As to conditions: 37° C.; for half-life: human serum from two volunteers. Format: in vitro ADME. The protocol:
The serum used in the assays was prepared by taking whole blood into plain tubes, incubating for one hour at 37° C., and then centrifuging at 2000 RPM for 10 minutes.
as §1

Data set [4] in a line: Hydrolysis stability in simulated intestinal fluid. It counts as physicochemical. How it is done:
In order first to evaluate the stability of Compound A in the gastro-intestinal tract, simulated gastric and intestinal fluids and other test fluids were prepared as follows:
PREPARATION OF SIMULATED INTESTINAL FLUID
6.1 grams of monobasic potassium phosphate and 3.9 grams of disodium hydrogen phosphate were dissolved in 1000 ml. of water. The pH of the resulting solution was 6.85.
as §1

Data set [5] in a line: Serum "total NAPA" in beagle dogs. Format: in vivo. As to conditions: oral, last dose after 23 days. The protocol: (§2) (B)--Investigation of Serum Concentrations in Beagle Dogs
(§3) 6 Beagle dogs (3 males and 3 females) were dosed once a day (at 08.00 hrs. each day) for 23 days with Compound A, suspended in 1% gum tragacanth, which was administered orally by oesophageal tube, at a rate of either 432 mg/kg (2 dogs, 1 male and 1 female) or 675 mg/kg (4 dogs, 2 male and 2 female). During this period the dogs received their usual food and water until 16.00 hrs. on the day before the test; but from that time until 08.00 hrs. on the day of the test they were given no food, although they received their usual drinking water. The usual dosage of Compound A was however given to the animal at 08.00 hrs. on the day of the test.
Without any further feeding, serum samples were then taken from each animal 2, 4 and 6 hours after the oral administration of Compound A, thus at 10.00 hrs., 12.00 hrs. and 14.00 hrs. on the day of the test. After the 6-hour serum sample had been taken, the animals received their usual food for a while; but they were again made to fast for 12 hours from 20.00 hrs. on the day of the test until 08.00 hrs. on the following day, when the last, 24-hour serum sample was taken. […]

Data set [6] is described as follows: Serum "free NAPA" in beagle dogs. It counts as in vivo. The conditions noted are these: oral. The protocol:
as §2, §3
Without any further feeding, serum samples were then taken from each animal 2, 4 and 6 hours after the oral administration of Compound A, thus at 10.00 hrs., 12.00 hrs. and 14.00 hrs. on the day of the test. After the 6-hour serum sample had been taken, the animals received their usual food for a while; but they were again made to fast for 12 hours from 20.00 hrs. on the day of the test until 08.00 hrs. on the following day, when the last, 24-hour serum sample was taken.
A direct determination similar to that used in Determination 2 above gave results for "free NAPA" as set out in Table IV below: […]

Data set [7] has as its system yeast-induced hyperthermia. Briefly: Antipyretic activity, yeast-induced hyperthermia test in rats. Format: in vivo, male Charles River rats. The conditions noted are these: compared with NAPA, equimolar basis, oral. The protocol: (D)--Investigation of Antipyretic Activity in Rats
Using the conventional procedure for the yeast-induced hyperthermia test, several groups of 10 male Charles River rats were given a subcutaneous injection of dried yeast. Immediately after the injection they were then medicated orally with respectively:
100 mg/kg of N-acetyl-para-aminophenol (NAPA);
80 mg/kg of NAPA+43.0 mg/kg of Compound A; and
60 mg/kg of NAPA+86.0 mg/kg of Compound A.
In the mixtures the amount of Compound A, N-acetyl-para-aminophenyl N'-acetyl-D,L-methionate, used was in each case equimolar with the 10%, 20% or 40% reduction in the amount of NAPA, so that all the medications were carried out at a level equivalent to 100 mg/kg of NAPA.

In data set [1] (500 mg/kg, Serum "free NAPA"), `CC(=O)Nc1ccc(O)cc1` [NAPA, N-acetyl-para-aminophenol] returned a concentration at 2 h of 97000 ng/mL and a concentration at 4 h of 32000 ng/mL. In data set [1] (1073 mg/kg), this molecule returned a concentration at 4 h of 32000 ng/mL.

For the molecule `CSCCC(NC(C)=O)C(=O)Oc1ccc(NC(C)=O)cc1` (racemic) [Compound A, N-acetyl-para-aminophenyl N'-acetyl-D,L-methionate], the half-life in data set [2] (pH 7.2, tris buffer pH 7.2, 30° C.) is around 7.92 h; in data set [2] (pH 7.2, tris buffer pH 7.2, 37° C.), 4 h; in data set [3] it was 2.5 h; in data set [3] (human, serum, read-out: half-life) it was 2.33 h; in data set [4] (simulated intestinal fluid, pH 6.85, 37° C.) it was 31.5 h. Besides, the “effect of human serum on the rate of hydrolysis” value in data set [3] is listed as “increased the rate of hydrolysis”. Besides, the rate of hydrolysis result in data set [4] (simulated intestinal juice, 37° C.) was “very slow”. Further, the “recovery of "total NAPA" in serum, time” value in data set [5] is “up to 24 hours”. Also, in data set [6] (23 days), the hydrolysis in vivo result is “easily hydrolyzed”. Besides, the “recovery of "free NAPA" in serum, time” value in data set [6] (last dose after 23 days) is recorded as “up to 6 hours”. Moreover, the antipyretic effect result in data set [7] is recorded as “virtually identical upon an equimolar basis of comparison with that of the well-tried analgesic NAPA”.

Broadly, the half-life is how long it takes for the measured level to halve.
